# Source: patent US20070049515A1, “Therapeutic agent for diabetes containing insulin resistance improving agent” (SANKYO COMPANY, LIMITED, priority 2005, published 2007)
# Columns and labels:
# Assay type in all cases: in vivo, rat
# [1] = test system: Zucker diabetic fatty rats; assay: Administration of the effective and low doses of compound A in combination (Example 1(a)): blood glucose level, red blood cell count, heart weight; conditions: for red blood cell count: FIG. 2; for heart weight: FIG. 3; for blood glucose level (mean) after the decrease to the low dose: oral once a day, from the 14th day on
# Source text: Zucker diabetic fatty rats (9-week-old, from Charles River Laboratories Japan, Inc.) were used in the experiment. The rats were divided into 4 groups of 5 individuals each so that body weight, blood glucose level, and red blood cell count may each be uniform among the groups, and each of these groups served as a low-dose treatment group (Ia), a low-dose treatment group (Ib), a continuous treatment group, or a control group. Food (FR2, from Funabashi Nojo) and water were given ad libitum during the testing period. A 0.5% carboxymethyl cellulose (CMC) solution only was administered to the control group, and a CMC suspension of compound A was orally administered to all of the other groups, once a day in doses described below. For the low-dose treatment group (Ia), it was administered at 3 mg/kg for 2 weeks and then at a decreased dose of 0.03 mg/kg for a further 3 weeks. For the low-dose treatment group (Ib), it was administered at 3 mg/kg for 2 weeks and then at a decreased dose of 0.3 mg/kg for a further 3 weeks. For the continuous treatment group, 3 mg/kg was administered for 5 weeks. Blood was collected every 7 days from the start of administration using a capillary tube treated with heparin and EDTA, and blood glucose level and blood cell parameters were determined using an autoanalyzer (blood glucose level: Glucoroder GX-T from A&T Corporation), blood cell parameters: KX-21N from Sysmex Corporation).
# [2] = test system: Zucker diabetic fatty rats; assay: Intermittent administration of compound A (Example 2): blood glucose level, red blood cell count, heart weight; conditions: for blood glucose level: FIG. 4; for red blood cell count: FIG. 5; for heart weight: FIG. 6
# Source text: Zucker diabetic fatty rats (9-week-old, from Charles River Laboratories Japan, Inc.) were used in the experiment. The rats were divided into 3 groups so that body weight, blood glucose level, and red blood cell count may each be uniform among the groups, and each of these groups served as a control group, an intermittent treatment group, or a continuous treatment group (n=4 to 5). Food (FR2, from Funabashi Nojo) and water were given ad libitum during the testing period. A 0.5% carboxymethyl cellulose (CMC) solution only was administered to the control group, and a CMC suspension of compound A was forcibly orally administered to the intermittent treatment group and continuous treatment group according to the regimen described below. For the intermittent treatment group, compound A was repeatedly given in a dose of 1 mg/kg once a day for one week before decreasing the administration thereof to twice a week to administer it for a further two weeks (dosing days: days 0 to 7, 10, 14, and 17). In this respect, the CMC solution was given on the days when compound A was not administered. For the continuous treatment group, 1 mg/kg was repeatedly administered once a day for three weeks. Blood was collected at days 0, 2, 5, 7, 9, 12, 14, 16, 19, and 21 when the start date of dosing was shown as day 0, using a capillary tube treated with heparin, and blood glucose level and blood cell parameters were determined using an autoanalyzer (blood glucose level: Glucoroder GX-T from A&T Corporation, blood cell parameters: KX-21N from Sysmex Corporation)
# [3] = test system: Zucker diabetic fatty rats; assay: Cycle of one week full coverage followed by four weeks of reduced dosage (Example 1(b)); conditions: one week full coverage (3 mg/kg) followed by four weeks of reduced dosage (0.3 mg/kg)
# [4] = continuous treatment group: 3 mg/kg orally once a day for 5 weeks
# [5] = low-dose treatment group (Ia): 3 mg/kg for 2 weeks, then 0.03 mg/kg for 3 weeks
# [6] = low-dose treatment group (Ib): 3 mg/kg for 2 weeks, then 0.3 mg/kg for 3 weeks
# [7] = continuous treatment group: 1 mg/kg orally once a day for three weeks
# [8] = intermittent treatment group: 1 mg/kg once a day for one week, then twice a week for two weeks
smiles,measurement,setting,value
"COc1ccc2nc(COc3ccc(CC4SC(=O)NC4=O)cc3)n(C)c2c1.Cl (stereo not shown) [compound A, 5-[4-(6-methoxy-1-methyl-1H-benzimidazol-2-ylmethoxy)benzyl]thiazolidin-2,4-dione hydrochloride]",blood glucose level,"[1]; continuous treatment group: 3 mg/kg orally once a day for 5 weeks, FIG. 1",lowered to a normal value
same,red blood cell count,[1]; [4],hemodilution (a decrease in red blood count)
same,heart weight,[1]; [4],marked increase in heart weight
same,blood glucose level (mean) after the decrease to the low dose,"[1]; low-dose treatment group (Ia): 3 mg/kg for 2 weeks, then 0.03 mg/kg for 3 weeks, FIG. 1",≤ 300 mg/dL
same,red blood cell count,[1]; [5],recovered nearly to control level
same,heart weight,[1]; [5],clearly decreased values compared to that in the continuous treatment group
same,blood glucose level (mean) after the decrease to the low dose,"[1]; low-dose treatment group (Ib): 3 mg/kg for 2 weeks, then 0.3 mg/kg for 3 weeks, FIG. 1",≤ 300 mg/dL
same,red blood cell count,[1]; [6],rapidly recovered in dose-dependent manner
same,heart weight,[1]; [6],clearly decreased values compared to that in the continuous treatment group
same,blood glucose level,[2]; [7],lowered to a normal range
same,red blood cell count,[2]; [7],hemodilution (a decrease in red blood cell count)
same,heart weight,[2]; [7],marked increase in heart weight
same,blood glucose level,[2]; [8],nearly the same level as that in the continuous treatment group
same,red blood cell count,[2]; [8],an increase in red blood cell count
same,heart weight,[2]; [8],decreased in value compared to that in the continuous treatment group
same,"results (blood glucose level, red blood cell count, heart weight) compared with Example 1(a)",[3],Almost the same results to those described above
